US9616037B2, “Aryl-phenyl-sulfonamido-cycloalkyl compounds and their use” (PIMCO 2664 Limited, priority 2008, dated 2017)
Converted amounts (≈) assume the structure as drawn. Like-named read-outs stand apart in the source and are kept apart here.

Columns and labels:
J774 macrophages = assay: Alamar Blue macrophage J774 viability assay; format: cell-based; settings: J774 cells, 72 hours with compound, Alamar Blue readout
Description: (§1) Initial screening of candidate compounds was performed using in vitro assays to determine potency, metabolic stability and solubility in biologically relevant fluids. Potency was assessed using a viability assay based on the survival of the J774 macrophage cell line. Macrophages are closely related to osteoclasts and have been used previously as a model system for osteoclast survival (see, e.g., Luckman et al., 1998). Like osteoclasts, J774 macrophages are dependent on continued NFκB activation for survival, thereby providing a valuable screen for compounds with anti-inflammatory activity. Metabolic stability was measured by determining the rate of disappearance of compound in the presence of human liver microsomal preparations, as quantified by LC-MS/MS. Solubility was measured by equilibration of the compound in fasted state simulated intestinal fluid (FaSSIF) and quantified by HPLC.
In vitro potency as anti-inflammatory agents was determined for a number of APSAC compounds by incubation with J774 macrophages and subsequent determination of cell viability.
J774 cells were plated at 10^4 cells per well in 100 μL αMEM (α Modified Eagle Medium) in 96-well plates and grown overnight. The next day, test compounds were added to the cultures, and cultures were continued for another 72 hours. At the end of the culture period, cell survival was determined using an Alamar Blue assay as previously described (see, e.g., Nociari et al., 1998).
Alamar Blue is an oxidation-reduction sensitive indicator. The dye itself is in the oxidised state, which is blue and non-fluorescent. The dye can accept electrons from reducing species, such as NADPH and FADH, to form a reduced dye species, which is red and fluorescent. Thus the transformation from oxidised form to reduced form can be measured by fluorimetric or colourimetric means. For fluorescence measurements, 530-560 nm excitation and 590 nm emission wavelengths are typically used. For colourimetric measurements, absorbance at 570 nm (reduced form) and 600 nm (oxidised form) is typically measured. A simple calculation is performed to determine the relative quantities of the two species.
A high ratio of the reducing species, NADPH and FADH, to the corresponding oxidised species, NADP and FAD, is an indicator that cells are proliferating and viable. A low ratio indicates cells that are quiescent or non-viable.
Briefly, Alamar Blue (Biosource International) was added undiluted to the each well (1:10 v/v, 10 μL). The plate was incubated at 37° C. for 3-4 hours and the fluorescence was measured at 590 nm, with a 25 nm bandwidth. A high reading indicated cells with normal viability, and a low reading indicated cells that have been damaged and are no longer proliferating normally. The controls gave a high fluorescence reading, indicating a high number of live, healthy cells. A potent test compound gave a low fluorescence reading. The average results for each test compound (n=5) were expressed as a percent (%) of the average control value.
Addition of Compounds. All of the compounds studied were made up as 100 mM solutions in DMSO. These stock solutions were then diluted 1000-10000× in culture medium (αMEM). From these 100 μM or 10 μM solutions, convenient quantities (3-33 μL) were added directly to the wells so as to give the desired final compound concentration.

[1] = Thermodynamic aqueous solubility in fasted state simulated intestinal fluid (FaSSIF); format: physicochemical; settings: equilibrated at 25° C. for 24 hours, HPLC
Description: as §1, with “Macrophages are closely related to osteoclasts and have been used previously as a model system for osteoclast survival (see, e.g., Luckman et al., 1998).” left out
Thermodynamic aqueous solubility was measured by equilibration of a number of APSAC compounds, in the solid state, with fasted state simulated intestinal fluid (FaSSIF) and quantified by HPLC. Measurement of solubility in FaSSIF provides a valuable model for the prediction of drug dissolution following oral administration.
The pH was adjusted to 6.5 using 1 M NaOH solution.
0.6 mL of a solution containing 100 mg/mL lecithin in methylene chloride was added. The methylene chloride was eliminated under vacuum at about 40° C. The vacuum was drawn for 15 minutes at 250 mbar, followed by 15 minutes at 100 mbar. […] After cooling to room temperature, the solution was then adjusted to 100 mL with blank FaSSIF.
The suspension was equilibrated at 25° C. for 24 hours, and then the pH was measured. The suspension was then filtered through a glass fibre C filter into a 96-well plate. The filtrate was then diluted by a factor of 100. Quantification was made by HPLC with reference to a standard solution of compound at approximately 0.1 mg/mL in DMSO. Different volumes of the standard, diluted and undiluted sample solutions were injected. […] Analysis was performed on an Agilent HP1100 series system equipped with a diode array detector and using ChemStation software vB.02.01-SR1.

| Structure (SMILES) | IC50 (J774 macrophages; Mus musculus, read-out: IC50) | other results |
| --- | --- | --- |
| O=S(=O)(Nc1cccc(CO)c1)c1ccc(-c2ccc(F)cc2F)cc1 [ABD456, 2′,4′-difluoro-biphenyl-4-sulfonic acid (3-hydroxymethyl-phenyl)-amide, reference compound] | 0.25 µM | Solubility [1]: 40 µg/mL (≈ 107 µM) |
| O=S(=O)(Nc1ccc(CO)cc1)c1ccc(-c2ccc(F)cc2F)cc1 [ABD466, 2′,4′-difluoro-biphenyl-4-sulfonic acid (4-hydroxymethyl-phenyl)-amide, reference compound] | 3 µM | – |
| O=S(=O)(Nc1cccc(CO)c1)c1ccc(-c2ccc(Cl)cc2F)cc1 [ABD575, reference compound] | – | IC50 (J774 macrophages; read-out: IC50): 0.4 µM; Solubility [1]: 70 µg/mL (≈ 179 µM) |
| O=S(=O)(N[C@H]1CC[C@H](O)CC1)c1ccc(-c2ccc(OC(F)(F)F)cc2)c(F)c1 [ABD665, 2-Fluoro-N-(trans-4-hydroxycyclohexyl)-4′-(trifluoromethoxy)biphenyl-4-sulfonamide] | 4.9 µM | – |
| O=S(=O)(N[C@H]1CC[C@H](O)CC1)c1ccc(-c2ccc(F)cc2F)cc1Cl [ABD705, 3-Chloro-2′,4′-difluoro-N-(trans-4-hydroxycyclohexyl)biphenyl-4-sulfonamide] | 0.83 µM | – |
| COc1ccc(-c2ccc(S(=O)(=O)N[C@H]3CC[C@H](O)CC3)cc2F)cc1 [ABD710, 2-Fluoro-N-(trans-4-hydroxycyclohexyl)-4′-methoxybiphenyl-4-sulfonamide] | 1.98 µM | – |
| O=S(=O)(N[C@H]1CC[C@H](O)CC1)c1ccc(-c2ccc(Cl)c(C(F)(F)F)c2)cc1 [ABD712, 4′-Chloro-N-(trans-4-hydroxycyclohexyl)-3′-(trifluoromethyl)biphenyl-4-sulfonamide] | 5.46 µM | – |
| N#Cc1ccc(-c2ccc(S(=O)(=O)N[C@H]3CC[C@H](O)CC3)c(Cl)c2)cc1 [ABD732, 3-Chloro-4′-cyano-N-(trans-4-hydroxycyclohexyl)biphenyl-4-sulfonamide] | 4.32 µM | – |
| Cc1cc(S(=O)(=O)N[C@H]2CC[C@H](O)CC2)ccc1-c1ccc(F)cc1F [ABD735, 2′,4′-Difluoro-N-(trans-4-hydroxycyclohexyl)-2-methylbiphenyl-4-sulfonamide] | 0.09 µM | – |
| Cc1cc(S(=O)(=O)N[C@H]2CC[C@H](O)CC2)ccc1-c1ccc(OC(F)(F)F)cc1 [ABD742, N-(trans-4-Hydroxycyclohexyl)-2-methyl-4′-(trifluoromethoxy)biphenyl-4-sulfonamide] | 0.77 µM | – |
| O=S(=O)(N[C@H]1CC[C@H](O)CC1)c1ccc(-c2ccc(Cl)cc2Cl)cc1OC(F)(F)F [ABD756, 2′,4′-Dichloro-N-(trans-4-hydroxycyclohexyl)-3-(trifluoromethoxy)biphenyl-4-sulfonamide] | 2.18 µM | – |
| CNC1CCC(NS(=O)(=O)c2ccc(-c3ccc(F)cc3F)cc2)CC1 (centres unmarked) [ABD816, 2′,4′-Difluoro-N-(4-(methylamino)cyclohexyl)biphenyl-4-sulfonamide] | 0.8 µM | – |
| CCNC1CCC(NS(=O)(=O)c2ccc(-c3ccc(F)cc3F)cc2)CC1 (centres unmarked) [ABD817, N-(4-(Ethylamino)cyclohexyl)-2′,4′-difluorobiphenyl-4-sulfonamide] | < 1 µM | – |
| CCN(CC)C1CCC(NS(=O)(=O)c2ccc(-c3ccc(F)cc3F)cc2)CC1 (centres unmarked) [ABD819, N-(4-(Diethylamino)cyclohexyl)-2′,4′-difluorobiphenyl-4-sulfonamide] | 2.4 µM | – |
| O=S(=O)(NC1CCC(N2CCCC2)CC1)c1ccc(-c2ccc(F)cc2F)cc1 (centres unmarked) [ABD820, 2′,4′-Difluoro-N-(4-(pyrrolidin-1-yl)cyclohexyl)biphenyl-4-sulfonamide] | 2.5 µM | – |
| O=S(=O)(NC1CCC(N2CCOCC2)CC1)c1ccc(-c2ccc(F)cc2F)cc1 (centres unmarked) [ABD821, 2′,4′-Difluoro-N-(4-morpholinocyclohexyl)biphenyl-4-sulfonamide] | > 10 µM | – |
| CCN(C)C1CCC(NS(=O)(=O)c2ccc(-c3ccc(F)cc3F)cc2)CC1 (centres unmarked) [ABD822, N-(4-(Ethyl(methyl)amino)cyclohexyl)-2′,4′-difluorobiphenyl-4-sulfonamide] | 6.98 µM | – |
| CNC[C@H]1CC[C@@H](NS(=O)(=O)c2ccc(-c3ccc(F)cc3F)cc2)CC1 [ABD824, 2′,4′-Difluoro-N-(cis-4-((methylamino)methyl)cyclohexyl)biphenyl-4-sulfonamide] | 7.2 µM | – |
| CN(C)C[C@H]1CC[C@@H](NS(=O)(=O)c2ccc(-c3ccc(F)cc3F)cc2)CC1 [ABD826, N-(cis-4-((Dimethylamino)methyl)cyclohexyl)-2′,4′-difluorobiphenyl-4-sulfonamide] | 1 µM | – |
| O=S(=O)(N[C@H]1CC[C@H](O)CC1)c1ccc(-c2ncc(Cl)cc2Cl)cc1 [ABD836, 4-(3,5-Dichloropyridin-2-yl)-N-(trans-4-hydroxycyclohexyl) benzene sulfonamide] | 0.28 µM | – |
| O=S(=O)(N[C@H]1CC[C@H](O)CC1)c1ccc(-c2ncc(Cl)cn2)cc1 [ABD837, 4-(5-Chloropyrimidin-2-yl)-N-(trans-4-hydroxycyclohexyl)benzenesulfonamide] | 8.88 µM | – |
| O=S(=O)(N[C@H]1CC[C@H](O)CC1)c1ccc(-c2cncnc2)cc1 [ABD861, N-(trans-4-Hydroxycyclohexyl)-4-(pyrimidin-5-yl)benzenesulfonamide] | – | IC50 (J774 macrophages): Inactive |
| O=S(=O)(N[C@H]1CC[C@@H](NCC(F)(F)F)CC1)c1ccc(-c2ccc(F)cc2F)cc1 [ABD864, 2′,4′-Difluoro-N-(cis-4-(2,2,2-trifluoroethylamino)cyclohexyl)biphenyl-4-sulfonamide] | > 10 µM | – |
| O=S(=O)(N[C@H]1CC[C@H](NCC(F)(F)F)CC1)c1ccc(-c2ccc(F)cc2F)cc1 [ABD865, 2′,4′-Difluoro-N-(trans-4-(2,2,2-trifluoroethylamino)cyclohexyl)biphenyl-4-sulfonamide] | 5.9 µM | – |
